Measured values reported in the NIST ThermoML archive (doi:10.1021/je9010486).

Assay: cn = amount concentration of the nth substance listed, in mol/dm3
Conditions: 101 kPa, Liquid

OC[C@@H](O)[C@@H](O[C@H]1O[C@H](CO)[C@@H](O)[C@H](O)[C@H]1O)[C@H](O)[C@@H](O)CO [4-O-α-D-glucopyranosyl-D-glucitol] + O
Conditions	mass density, 293.15 K [kg/m3]	mass density, 303.15 K [kg/m3]	mass density, 313.15 K [kg/m3]	mass density, 323.15 K [kg/m3]	viscosity, 293.15 K [mPa·s]	viscosity, 303.15 K [mPa·s]	viscosity, 313.15 K [mPa·s]	viscosity, 323.15 K [mPa·s]
c1 = 0.1	1009.45	1007.32	1003.78	999.68	1.274	0.8869	0.6982	0.6083
c1 = 0.2	1018.37	1016.24	1012.7	1008.6	1.381	0.9747	0.7706	0.652
c1 = 0.3	1027.29	1025.16	1021.62	1017.52	1.513	1.104	0.8464	0.7175
c1 = 0.4	1036.21	1034.08	1030.54	1026.44	1.66	1.225	0.9455	0.7827
c1 = 0.5	1045.13	1043	1039.46	1035.36	1.848	1.361	1.06	0.8723
c1 = 0.6	1054.05	1051.92	1048.38	1044.28	2.009	1.536	1.177	0.9616
c1 = 0.7	1062.97	1060.84	1057.3	1053.2	2.173	1.684	1.301	1.061
c1 = 0.8	1071.89	1069.76	1066.22	1062.12	2.304	1.825	1.438	1.15
c1 = 0.9	1080.81	1078.68	1075.14	1071.04	2.49	1.947	1.591	1.242
c1 = 1	1089.73	1087.6	1084.06	1079.96	2.68	2.132	1.741	1.385

OC[C@@H](O)[C@@H](O)[C@H](O)[C@@H](O)CO [D-sorbitol] + O
Conditions	mass density, 293.15 K [kg/m3]	mass density, 303.15 K [kg/m3]	mass density, 313.15 K [kg/m3]	mass density, 323.15 K [kg/m3]	viscosity, 293.15 K [mPa·s]	viscosity, 303.15 K [mPa·s]	viscosity, 313.15 K [mPa·s]	viscosity, 323.15 K [mPa·s]
c1 = 0.1	1004.76	1002.12	998.58	994.32	1.088	0.8619	0.6892	0.5711
c1 = 0.2	1011.23	1008.52	1004.89	1000.54	1.113	0.8842	0.7109	0.5983
c1 = 0.3	1017.64	1014.83	1011.14	1006.75	1.168	0.9329	0.7399	0.6199
c1 = 0.4	1024.07	1021.15	1017.37	1012.93	1.22	0.9794	0.7849	0.6596
c1 = 0.5	1029.89	1026.88	1023.01	1018.5	1.275	1.029	0.8127	0.6841
c1 = 0.6	1036.94	1033.82	1029.9	1025.33	1.33	1.079	0.8573	0.7037
c1 = 0.7	1043.32	1040.11	1036.08	1031.44	1.394	1.136	0.8885	0.7392
c1 = 0.8	1049.36	1046.04	1041.95	1037.25	1.466	1.202	0.931	0.7779
c1 = 0.9	1056.16	1052.72	1048.48	1043.79	1.531	1.26	0.9849	0.8178
c1 = 1	1062.52	1058.99	1054.72	1049.92	1.608	1.329	1.03	0.8541
